Blank lines part the entries; values can stand above or below the molecule they belong to.
Key:
[1] = target: T1, partially purified PLD from rat brain membrane (Rattus norvegicus, UniProt P70496); experiment: Measurement of PLD activity (partially purified rat brain PLD, 14C-PC substrate, TLC); format: biochemical; settings: for PLD activity, % of the control: 10 μM compound, standard mixture with 4.8 μM PIP2, 100 nM Arf, 5 μM GTPγS; for Km for PLD in the presence of inhibitor: Km without inhibitor 33.3 μM PC; for Vmax in the presence of inhibitor: Vmax without inhibitor 166.7 pmol/h, Lineweaver-Burk; for IC50: FIG. 2, read-out: Half-maximal inhibition of PLD activity
T1 construct: The activity of partially purified PLD from rat brain membrane was assayed; tissue Dr. Sue Goo Rhee (National Institutes of Health, Bethesda, Md.); host or cells: rat brain membranes
T1 sequence (P70496 1-1074): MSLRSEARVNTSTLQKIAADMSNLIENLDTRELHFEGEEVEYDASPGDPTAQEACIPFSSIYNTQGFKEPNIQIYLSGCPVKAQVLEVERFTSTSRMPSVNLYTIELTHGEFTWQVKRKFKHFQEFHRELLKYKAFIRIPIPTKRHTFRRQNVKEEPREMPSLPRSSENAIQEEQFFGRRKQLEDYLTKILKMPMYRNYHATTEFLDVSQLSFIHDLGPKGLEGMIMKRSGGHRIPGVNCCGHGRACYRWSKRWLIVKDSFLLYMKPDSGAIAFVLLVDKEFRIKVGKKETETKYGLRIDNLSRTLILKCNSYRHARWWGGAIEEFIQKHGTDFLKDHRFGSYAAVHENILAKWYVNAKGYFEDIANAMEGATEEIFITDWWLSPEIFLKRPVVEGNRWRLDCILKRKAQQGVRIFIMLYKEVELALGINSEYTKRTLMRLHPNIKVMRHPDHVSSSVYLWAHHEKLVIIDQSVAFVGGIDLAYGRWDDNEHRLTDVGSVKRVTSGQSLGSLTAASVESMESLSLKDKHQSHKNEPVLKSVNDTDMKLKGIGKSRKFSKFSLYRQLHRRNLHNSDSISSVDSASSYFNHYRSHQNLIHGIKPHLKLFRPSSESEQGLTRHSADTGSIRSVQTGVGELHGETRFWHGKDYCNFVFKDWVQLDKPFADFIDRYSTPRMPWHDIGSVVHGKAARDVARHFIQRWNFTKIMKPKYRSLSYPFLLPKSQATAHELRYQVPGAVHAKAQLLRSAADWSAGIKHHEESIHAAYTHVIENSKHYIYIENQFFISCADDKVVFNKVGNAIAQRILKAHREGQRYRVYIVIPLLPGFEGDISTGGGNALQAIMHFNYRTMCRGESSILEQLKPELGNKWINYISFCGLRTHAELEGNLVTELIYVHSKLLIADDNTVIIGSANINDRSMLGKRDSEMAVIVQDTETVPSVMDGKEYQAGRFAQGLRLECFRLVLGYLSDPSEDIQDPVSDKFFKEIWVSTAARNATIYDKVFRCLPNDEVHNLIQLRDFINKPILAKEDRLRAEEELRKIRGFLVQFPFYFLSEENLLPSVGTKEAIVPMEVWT

[2] = system: human prostate cancer cell line PC-3; experiment: PC-3 cell growth (cell viability after trypan blue staining); format: cell-based
Method: The influence of lysophospholipids on the inhibition of cancer cell growth was investigated. For this purpose, human prostate cancer cell line PC-3 was used. PC-3 cells were cultured using standard RPMI 1640 medium supplemented with 5% fetal bovine serum (FBS). The composition of RPMI 1640 included inorganic salts, glucose, amino acids and vitamins (see Rajesh, D., et al., Molecular Pharmacology 56:515-525 (1999) for details). PC-3 cells were cultured in the presence of various presence of various phospholipids. At appropriate times after treatment the cells were treated by trypsin EDTA treatment, washed twice in an ice cold buffer and analyzed for cell viability after staining with trypan blue (Sawicki, W., et al., Stain Technology 42:143 (1967)).

[3] = system: PLD activity in PC-3 cells; settings: cited from earlier work
PLD from plant tissues = settings: cited from earlier work
rat brain PLD = target: T2, rat brain PLD (Rattus norvegicus, UniProt P70496); experiment: Binding of lysophospholipids to PLD (vesicle precipitation assay followed by immunoblot); settings: 1 mM vesicles, 1,500 fold excess BSA
T2 construct: 200 ng of rat brain PLD; tissue Dr. Sue Goo Rhee (National Institutes of Health, Bethesda, Md.); host or cells: rat brain membranes
T2 sequence (P70496 1-1074): T1 sequence (P70496 1-1074)
Method: The binding ability of lysophospholipids to PLD was estimated by precipitation assay followed by immunoblot. The final assay volume was 0.3 ml containing 50 mM Hepes (pH 7.5), 3 mM EGTA, 80 mM KCl, 2.5 MM MgCl2, 2 mM CaCl2, 1% ethanol, 5 μM GTPγS, 33 nM myristoylated Arf, 300 μg of BSA, 200 ng of rat brain PLD and 1 mM lysophospholipid or phospholipid vesicles. After incubation at 37° C. for 10 minutes, the mixture was cooled in ice-water for 30 minutes and centrifuged at 17,000×g for 30 minutes at 4° C. The precipitant of lysophospholipid vesicles containing bound PLD in the excess of BSA (1,500 fold than rat PLD) was resuspended in 20 μL PBS (pH 7.5). The bound PLD was separated by 8% SDS-PAGE without reducing agent (2-mercaptoethanol) in sample loading buffer and transferred onto immunoblot membrane. The membrane was blotted with rabbit-PLD antibodies that detect both PLD 1 and PLD 2 isozymes. The PLD-antibody complex was visualized by staining alkaline phosphatase conjugated to a second antibody (Bio-Rad, Hercules, Calif.).

Molecule: O[C@H]1[C@H](O)[C@@H](O)[C@H](O)[C@@H](O)[C@H]1O [inositol, reference compound]
inhibition of PLD activity by headgroups ([1]; 10 μM): None of the headgroups such as choline, glycerol, inositol, or serine significantly inhibited PLD activity

inhibition at 20 µM ([1]; 20 μM): 10% | inhibition at 40 µM ([1]; 40 μM): 20%
Molecule: CCCCCCCC/C=C\CCCCCCCC(=O)O [oleate, reference compound]

Molecule: C=C(C)[C@@H]1CC=C(CO)CC1 [perillyl alcohol, reference compound]
inhibition of PC-3 cell growth compared to LPI (FIG. 10) ([2]; 1 mM): not as strong inhibitor of PC-3 cell growth as compared to LPI

Molecule: N[C@@H](CO)C(=O)O [serine, reference compound]
inhibition of PLD activity by headgroups ([1]; 10 μM): None of the headgroups such as choline, glycerol, inositol, or serine significantly inhibited PLD activity

stimulatory effect on PLD activity ([1]; 10 μM): 6-9%
Molecule: Triton X-100 [reference compound]

Molecule: eLPE [reference compound]
effect on rat brain PLD activity ([1]; 10 μM (FIG. 1)): not inhibited but rather slightly stimulated

stimulation of rat brain PLD ([1]; 10 and 20 μM, assay contains Arf and PIP2): not stimulated
Molecule: lysophosphatidic acid [reference compound]
effect on PLD activity in PC-3 cells [3]: stimulate PLD activity

PLD activity, % of the control [1]: 61.0%
Molecule: lysophosphatidylcholine [LPC, reference compound]
inhibition of activity of PLD from plant tissues (PLD from plant tissues): not significantly inhibited | retardation of PC-3 cell growth (FIG. 8) [2]: able to retard the growth of PC-3 cells

PLD activity, % of the control [1]: 24.9%
Molecule: lysophosphatidylglycerol [LPG]
inhibition of activity of PLD from plant tissues (PLD from plant tissues): not significantly inhibited | retardation of PC-3 cell growth (FIG. 8) [2]: able to retard the growth of PC-3 cells

inhibition of PLD activity ([1]; 160 nM): 19% | inhibition of PLD activity ([1]; 640 nM): 27% | PLD activity, % of the control, in the absence of Arf ([1]; 4 μM inhibitor, no Arf (no Arf alone: 72%)): 33% | Km for PLD in the presence of inhibitor ([1]; 4 μM inhibitor): did not change | Vmax in the presence of inhibitor ([1]; 4 μM inhibitor): 76.9 pmol/h | PLD activity, % of the control [1]: 23.3% | change of PLD activity by addition of myristoylated Arf in presence of inhibitor ([1]; 15 μM inhibitor): not significantly changed | IC50 [1]: 3 µM | PLD inhibition when PIP2 concentration tripled ([1]; LPI 4 μM, LPS 12 μM, PIP2 4.8 vs 14.4 μM): not significantly changed | co-precipitation of PLD proteins with lipid vesicles (rat brain PLD): co-precipitated
Molecule: lysophosphatidylinositol [LPI]
inhibition of PC-3 cell growth, lyso form vs phospholipid and inositol (FIG. 7) [2]: able to inhibit the PC-3 cell growth | retardation of PC-3 cell growth (FIG. 8) [2]: able to retard the growth of PC-3 cells | inhibition of PC-3 cell growth, concentration dependence (FIG. 9) ([2]; 100 μM): very inhibitory

Molecule: lysophosphatidylserine [LPS]
inhibition of activity of PLD from plant tissues (PLD from plant tissues): not significantly inhibited | Km for PLD in the presence of inhibitor ([1]; 4 μM inhibitor): did not change | Vmax in the presence of inhibitor ([1]; 4 μM inhibitor): 121.5 pmol/h | PLD activity, % of the control [1]: 30.3% | IC50 [1]: 6 µM

Source: patent publication US20030036531A1, “Use of lysophospholipids to inhibit mammalian phospholipase D” (Wisconsin Alumni Research Foundation, priority 2001, published 2003)
